Assay results as given in patent US9012493B2, “1-heterodiene derivative and pest control agent” (Nippon Soda Co., Ltd., priority 2009, dated 2015).

Tests used:
Type in all cases: in vivo
[1] = system: Rice Armyworm (Mythimna Separata); assay: Efficacy test against rice armyworm, corn leaf dip; conditions: 125 ppm, emulsifiable concentrate diluted with water, corn leaves immersed, second instar larvae, after 5 days, 25° C.
Experimental: (§1) Test Examples of the pest control agent thus obtained according to the present invention are shown below. In respective Test Examples, the insecticidal rate (%) was determined by the following calculation equation. Insecticidal rate (%)=(number of dead pests/number of released pests)×100
The emulsifiable concentrate obtained according to Formulation of Formulation Example 2 was diluted with water so as to control the concentration of the compound to 125 ppm. Leaves of corn were immersed in this diluted solution for 30 seconds and then air-dried. The leaves were put in a petri dish on which a filter paper is laid, and then five second instar larvae of rice armyworm were inoculated. After covering the petri dish with a glass lid, the petri dish was placed in a temperature-controlled room at a temperature of 25° C. and a humidity of 65%. After 5 days, life and death were examined and the insecticidal rate was determined. The test was repeated twice.

[2] = system: Sweetpotato Whitefly (Bemisia Tabaci); assay: Efficacy test against sweetpotato whitefly, sprayed tomato leaf; conditions: 125 ppm, emulsifiable concentrate diluted with water, adults (type B), after 2 days, 25° C.
Experimental: as §1
The emulsifiable concentrate obtained according to Formulation of Formulation Example 2 was diluted with water so as to control the concentration of the compound to 125 ppm. The diluted solution was sprayed over a tomato leaf obtained by cutting and then air-dried. Using absorbent cotton, the leaf was fixed to a flask so that a front surface of the leaf faces upward. Seven pairs of adults of sweetpotato whitefly (type B) were inoculated in this container, and the container was placed in a temperature-controlled room at a temperature of 25° C. and a humidity of 65%. After 2 days, life and death were examined and the insecticidal rate was determined. The test was repeated twice.

[3] = system: Cotton Aphid (Aphis Gossypii); assay: Efficacy test against cotton aphid, spray on cucumber plant; conditions: 125 ppm, emulsifiable concentrate diluted with water, sprayed over cucumber plant with nymphs, after 5 days, 25° C.
Experimental: as §1
The emulsifiable concentrate obtained according to Formulation of Formulation Example 2 was diluted with water so as to control the concentration of the compound to 125 ppm. Adults of cotton aphids were inoculated to a cucumber plant (approximately 10 days after sprouting) sown in a 3 sun/size pot (9 cm). After 1 day, adult aphids were removed and the diluted solution was sprayed over the cucumber plant on which delivered nymphs are parasitic. The pot was placed in a temperature-controlled room at a temperature of 25° C. and a humidity of 65%. After 5 days, life and death were examined and the insecticidal rate was determined. The test was repeated twice.

With `C=C1SC(=Nc2ccc(C)cc2)C(=CSc2ccc3ccccc3c2)CC1(C)C` (mixture of isomers) [Compound 2-88] the insecticidal rate [1] was 100% and the insecticidal rate [2] was 100%.

With `C=C1SC(=Nc2ccc(C)cc2)C(=CSc2ccc([N+](=O)[O-])cc2)CC1(C)C` (mixture of isomers) [Compound 6-4] the insecticidal rate [1] was 100%.

For `C=C1SC(=Nc2ccc(C)cc2)C(=CSC2CCCCC2)CC1(C)C` (mixture of isomers) [Compound 6-5], the insecticidal rate [1] was 100% and the insecticidal rate [2] was 100%.

Molecule `C=C1SC(=Nc2ccc(C)cc2)C(=CSC2CCc3ccccc32)CC1(C)C` (racemic) [Compound 2-115] has an insecticidal rate [1] of 100% and an insecticidal rate [2] of 100%.

`C=C1SC(=Nc2ccc(OC)cc2)C(=CSc2ccccc2)CC1(C)CCC=C(C)C` (racemic) [Compound 2-130] was tested, and the insecticidal rate [1] was 100% and the insecticidal rate [2] was 100%.

In the case of `CC(C)=C1CC(=CSc2ccccc2)C(=Nc2ccc(Cl)cc2)S1` [Compound 1-2], the insecticidal rate [1] is reported as 100% and the insecticidal rate [2] is reported as 100%.

`CC(C)=C1CC(=CSc2ccccc2)C(=[NH+]c2ccc(Cl)cc2)S1.F[B-](F)(F)F` [Compound 1-3] showed an insecticidal rate [1] of 100% and an insecticidal rate [2] of 100%.

`C=C1CCC(=CSc2ccccc2)C(=Nc2ccc(Cl)cc2)S1` [Compound 2-1] gave an insecticidal rate [1] of 100% and an insecticidal rate [2] of 100%.

`C=C1CCC(=CSc2ccccc2)C(=Nc2ccc(C(F)(F)F)cc2)S1` [Compound 2-5] was tested, and the insecticidal rate [1] was 100% and the insecticidal rate [2] was 100%.

`C=C1CCC(=CSc2ccccn2)C(=Nc2ccc(C)cc2)S1` [Compound 2-7] showed an insecticidal rate [3] of 100%.

`C=C1CCC(=CSc2ccccc2)C(=Nc2ccc(OC)cc2)S1` [Compound 2-8] was tested, and the insecticidal rate [1] was 100%, the insecticidal rate [3] was 100% and the insecticidal rate [2] was 100%.

Molecule `C=C1CCC(=CSc2ccc(F)cc2)C(=Nc2ccc(OC)cc2)S1` [Compound 2-9] has an insecticidal rate [1] of 100%, an insecticidal rate [3] of 100% and an insecticidal rate [2] of 100%.

`C=C1SC(=Nc2ccc(OC)cc2)C(=CSc2ccccc2)CC1(C)C` [Compound 2-16] was tested, and the insecticidal rate [1] was 100%, the insecticidal rate [3] was 100% and the insecticidal rate [2] was 100%.

`C=C1SC(=Nc2ccc(C)cc2)C(=CSc2ccc(OC)cc2)CC1(C)C` [Compound 2-18] gave an insecticidal rate [1] of 100%, an insecticidal rate [3] of 100% and an insecticidal rate [2] of 100%.

Work on `C=C1SC(=Nc2ccc(C)cc2)C(=CSc2ccccc2OC)CC1(C)C` [Compound 2-19] yielded an insecticidal rate [1] of 100%, an insecticidal rate [3] of 100% and an insecticidal rate [2] of 100%.

Molecule `C=C1SC(=Nc2ccc(C)cc2)C(=CSc2ccc(NC(C)=O)cc2)CC1(C)C` [Compound 2-21] has an insecticidal rate [1] of 100%.

`COc1ccc(N=C2SC(=C(C)C)CCC2=CSc2ccc(F)cc2)cc1` [Compound 2-22] gave an insecticidal rate [1] of 100%, an insecticidal rate [3] of 100% and an insecticidal rate [2] of 100%.

`COc1ccc(N=C2SC(=C(C)C)CCC2=CSc2ccccc2)cc1` [Compound 2-23] was tested, and the insecticidal rate [3] was 100%.

`C=C1SC(=Nc2ccc(C)cc2)C(=CSc2ccc(F)cc2)CC12CCCCC2` [Compound 2-24] gave an insecticidal rate [1] of 100% and an insecticidal rate [2] of 100%.

`C=C1SC(=Nc2cccc(OC)c2)C(=CSc2ccccc2)CC1(C)C` [Compound 2-25] was tested, and the insecticidal rate [1] was 100%, the insecticidal rate [3] was 100% and the insecticidal rate [2] was 100%.

`C=C1SC(=Nc2ccc(C)cc2Cl)C(=CSc2ccccc2)CC1(C)C` [Compound 2-26] was tested, and the insecticidal rate [1] was 100%, the insecticidal rate [3] was 100% and the insecticidal rate [2] was 100%.

With `C=C1SC(=Nc2cccc(Cl)c2)C(=CSc2ccccc2)CC1(C)C` [Compound 2-29] the insecticidal rate [1] was 100%, the insecticidal rate [3] was 100% and the insecticidal rate [2] was 100%.

Work on `C=C1SC(=Nc2ccc(OC)cc2OC)C(=CSc2ccccc2)CC1(C)C` [Compound 2-30] yielded an insecticidal rate [1] of 100% and an insecticidal rate [3] of 100%.

With `C=C1SC(=Nc2c(F)cccc2F)C(=CSc2ccccc2)CC1(C)C` [Compound 2-31] the insecticidal rate [1] was 100%, the insecticidal rate [3] was 100% and the insecticidal rate [2] was 100%.

In the case of `C=C1SC(=Nc2ccc(OC)cc2F)C(=CSc2ccccc2)CC1(C)C` [Compound 2-33], the insecticidal rate [1] is reported as 100%, the insecticidal rate [3] is reported as 100% and the insecticidal rate [2] is reported as 100%.

Molecule `C=C1SC(=Nc2cccc(Cl)c2Cl)C(=CSc2ccccc2)CC1(C)C` [Compound 2-37] has an insecticidal rate [1] of 100%, an insecticidal rate [3] of 100% and an insecticidal rate [2] of 100%.

`C=C1SC(=Nc2ccc3c(c2)OCO3)C(=CSc2ccccc2)CC1(C)C` [Compound 2-39] gave an insecticidal rate [1] of 100%, an insecticidal rate [3] of 100% and an insecticidal rate [2] of 100%.

`C=C1SC(=Nc2ccc(OC)cc2C)C(=CSc2ccc(OC)cc2)CC1(C)C` [Compound 2-42] gave an insecticidal rate [1] of 100%, an insecticidal rate [3] of 100% and an insecticidal rate [2] of 100%.

In the case of `COc1ccc(N=C2SC(=C(C)C)CCC2=CSc2ncccn2)cc1` [Compound 2-43], the insecticidal rate [1] is reported as 100%.

In the case of `C=C1SC(=Nc2cc(Cl)ccc2Cl)C(=CSc2ccccc2)CC1(C)C` [Compound 2-44], the insecticidal rate [1] is reported as 100% and the insecticidal rate [2] is reported as 100%.

For `C=C1SC(=Nc2ccc(OC)cc2)C(=CSc2ncccn2)CC1(C)C` [Compound 2-47], the insecticidal rate [1] was 100%, the insecticidal rate [3] was 100% and the insecticidal rate [2] was 100%.

Molecule `C=C1CCC(=CSc2ccccc2)C(=Nc2ccsc2)S1` [Compound 2-52] has an insecticidal rate [1] of 100%, an insecticidal rate [3] of 100% and an insecticidal rate [2] of 100%.

Work on `C=C1SC(=Nc2ccccc2)C(=CSc2ccccc2)CC1(C)C` [Compound 2-53] yielded an insecticidal rate [1] of 100%, an insecticidal rate [3] of 100% and an insecticidal rate [2] of 100%.

With `C=C1SC(=Nc2ccccc2)C(=CSc2ccc(F)cc2)CC1(C)C` [Compound 2-54] the insecticidal rate [1] was 100%, the insecticidal rate [3] was 100% and the insecticidal rate [2] was 100%.

`C=C1SC(=Nc2ccc(OC)cc2)C(=COc2ccccc2)CC1(C)C` [Compound 2-55] gave an insecticidal rate [1] of 100%, an insecticidal rate [3] of 100% and an insecticidal rate [2] of 100%.

For `C=C1SC(=Nc2ccc(C)cc2)C(=CSc2ccc(F)cc2)CC12CCOCC2` [Compound 2-57], the insecticidal rate [1] was 100%, the insecticidal rate [3] was 100% and the insecticidal rate [2] was 100%.

`C=C1SC(=Nc2ccc(OC)cc2)C(=CSC2CCCC2)CC1(C)C` [Compound 2-58] showed an insecticidal rate [1] of 100%, an insecticidal rate [3] of 100% and an insecticidal rate [2] of 100%.

`C=C1SC(=Nc2c(C)cccc2C)C(=CSc2ccccc2)CC1(C)C` [Compound 2-62] was tested, and the insecticidal rate [1] was 100%, the insecticidal rate [3] was 100% and the insecticidal rate [2] was 100%.

`C=C1SC(=Nc2ccc(C)cc2)C(=CSC(C)(C)C)CC1(C)C` [Compound 2-74] showed an insecticidal rate [1] of 100% and an insecticidal rate [2] of 100%.

`C=C1SC(=Nc2ccc(OC)cc2)C(=CSc2ccc(C=O)cc2)CC1(C)C` [Compound 2-82] showed an insecticidal rate [1] of 100%.

`C=C1SC(=Nc2ccc(OC)cc2)C(=CSc2ccc(C(F)(F)F)cn2)CC1(C)C` [Compound 2-95] was tested, and the insecticidal rate [1] was 100% and the insecticidal rate [2] was 100%.

For `C=C1SC(=Nc2ccc(C)cc2)C(=CSc2ccccc2CO)CC1(C)C` [Compound 2-96], the insecticidal rate [1] was 100%.

Molecule `C=C1SC(=Nc2ccc(OC)cc2)C(=CSc2cccc(Oc3ccccc3)c2)CC1(C)C` [Compound 2-109] has an insecticidal rate [2] of 100%.

`C=C1SC(=Nc2ccc(C)cc2)C(=CSc2sccc2OC)CC1(C)C` [Compound 2-116] was tested, and the insecticidal rate [1] was 100% and the insecticidal rate [2] was 100%.

`C=C1SC(=Nc2ccc(C)cc2)C(=CSc2cc(C)oc2C)CC1(C)C` [Compound 2-123] was tested, and the insecticidal rate [1] was 100% and the insecticidal rate [2] was 100%.

For `C=C1SC(=Nc2ccc(C)cc2)C(=CSc2cc(C(F)(F)F)ccn2)CC1(C)C` [Compound 2-126], the insecticidal rate [1] was 100% and the insecticidal rate [3] was 100%.

Molecule `C=C1SC(=Nc2ccccc2)C(=CSc2nc(C)cnc2C)CC1(C)C` [Compound 2-131] has an insecticidal rate [1] of 100% and an insecticidal rate [2] of 100%.

With `C=C1SC(=Nc2ccc(C)cc2)C(=CSc2nccc(OC)n2)CC1(C)C` [Compound 2-133] the insecticidal rate [1] was 100% and the insecticidal rate [2] was 100%.

Molecule `C=C1CCC(=CSc2ccccn2)C(=Nc2ccc(C)cc2)S1` [Compound 4-1] has an insecticidal rate [1] of 100%.

`C=C1SC(=Nc2ccc(OC)cc2)C(=CSc2ccccn2)CC1(C)C` [Compound 4-2] was tested, and the insecticidal rate [1] was 100%.

For `C=C1SC(=Nc2ccc(C)cc2)C(=CSc2nccs2)CC1(C)C` [Compound 4-3], the insecticidal rate [2] was 100%.

Work on `C=C1SC(=Nc2ccc(OC)cc2)C(=CSc2cccs2)CC1(C)C` [Compound 4-4] yielded an insecticidal rate [1] of 100% and an insecticidal rate [2] of 100%.
